What was measured:
[1] = system: GR33 polypeptide SEQ ID No. 2; test: Pharmacological and electrophysiological study of Xenopus eggs microinjected with GR33 mRNA (induced current under applied potential); assay type: cell-based, rat; conditions: for effect on response induced by NMDA (200 μM): antagonist applied (200 μM) simultaneously with NMDA; for effect of competitive antagonist on responses to NMDA: concentration not given
Procedure: The cDNA fragment isolated in Example 2 was transcribed into mRNA and microinjected into Xenopus eggs. The microinjected eggs thereby obtained were then tested for their capacity to bind certain labelled NMDA receptor ligands, or for their behaviour with respect to modulators of NMDA receptors.
The plasmid containing the 1.7-kb cDNA coding for the GR33 polypeptide SEQ ID No. 2 was linearized in the presence of the enzyme SmaI, and then subjected to a transcription step in the presence of phage T7 RNA polymerase. Transcription was performed using the Stratagene Kit according to the manufacturer's recommendations.
The synthetic RNA obtained above, dissolved in sterile water, was used (5 ng) for injection into mature Xenopus eggs (stages V and VI) in a volume of 50 nl. The eggs were then maintained for 3 days at 19° C. in multi well plates in a Barth medium supplemented with antibiotics (Miledi and Sumikawa, Biomed. Res. 3 (1982) 390).
The eggs thereby obtained were then tested for the presence of functional NMDA receptors at their surface. For this purpose, the eggs were transferred to modified OR-2 medium lacking magnesium, of composition: 88 mM NaCl, 2.5 mM KCl, 1 mM CaCl2, 10 mM HEPES buffer, pH 7.4 adjusted with sodium hydroxide. The different drugs (ligands or modulators) were applied by perfusion (10 ml/min) for 10-30 seconds under an applied potential difference of -80 or -90 mV.

[2] = system: GR33 polypeptide SEQ ID No. 2; test: as above; assay type: cell-based, rat
known NMDA receptors = conditions: cited from earlier work

C=C(C)[C@H]1CN[C@H](C(=O)O)[C@H]1CC(=O)O [kainate]
induction of inward current ([1]; kainate): little or no effect

N[C@@H](Cn1oc(=O)[nH]c1=O)C(=O)O [quisqualate]
induction of inward current ([1]; quisqualate 50 μM): little or no effect

[Ca+2] [calcium]
effect of calcium on GR33 activity [1]: inhibitory effect | effect on response induced by NMDA (200 μM) ([2]; external calcium concentration increased to 2.5 mM): decreased | effect on activity of known NMDA receptors (known NMDA receptors): stimulates

N[C@@H](CCC(=O)O)C(=O)O [glutamate, Glutamic acid]
strength of response among excitatory amino acids tested (glutamate, kainate, quisqualate, homocysteate) [1]: strongest responses | induction of inward current ([1]; glutamate 0.1-1 mM, perfusion 10-30 s, -80 or -90 mV): induces an inward current

[Mg+2] [magnesium]
inhibitory effect of magnesium on GR33 activity [1]: 30-70% | effect on response induced by NMDA (200 μM) ([2]; magnesium 200 μM added to the medium): decreased | effect on activity of known NMDA receptors (known NMDA receptors): completely inhibits

N[C@H](CCCP(=O)(O)O)C(=O)O [AP5, D-2-amino-5-phosphonovaleric acid]
effect on response induced by NMDA (200 μM) [1]: abolished | effect of competitive antagonist on responses to NMDA [1]: reduced

N[C@H](CCCCCP(=O)(O)O)C(=O)O [AP7, D-2-amino-7-phosphonoheptanoic acid]
effect on response induced by NMDA (200 μM) [1]: abolished | effect of competitive antagonist on responses to NMDA [1]: reduced

CN[C@H](CC(=O)O)C(=O)O [NMDA, N-methyl-D-aspartate]
EC50 ([1]; GR33 expressed in Xenopus eggs, read-out: NMDA concentration giving 50% of the maximum response (ED50)): ~10 µM
